In brackets after ≈: the same amount, converted by molar mass. Like-named read-outs stand apart in the source and are kept apart here.
How the values were obtained:
[1] = Solubility in solvents; format: physicochemical
[2] = test system: ICR mice; assay: Toxicity after intraperitoneal administration to ICR mice; format: in vivo; conditions: 100 mg/kg
[3] = test system: Candida albicans TIMM0136; assay: Antimicrobial spectrum, liquid medium dilution method; format: cell-based
Experimental: (§1) The TKR459 obtained was used to determine antimicrobial spectra against various microorganisms. The minimal inhibitory concentration (μg/ml) was measured by the liquid medium dilution method as the minimal concentration causing a substantially complete inhibition of micobial growth. The sub-minimal inhibitory concentration (μg/ml) was determined as the minimal concentration causing a partial inhibition of micobial growth and shown in the parentheses of Table 2. In the table, YNBG stands for a medium comprising 0.67% of yeast nitrogen base (manufactured by Difco) and 1.0% of glucose.

[4] = test system: Candida kefyr TIMM0301; assay: as above; format: cell-based; conditions: for MIC: Kluyveromyces marxianus, Candida kefyr TIMM0301, YNBG medium
Experimental: as §1

[5] = test system: Cryptococcus neoformans TIMM0354; assay: as above; format: cell-based
Experimental: as §1

Question: Which Solubility in chloroform ([1]; chloroform) does the source give for CC(O)(CCCCCCCCCCCCCC1OC(O)C(N)C(O)C1O)CCC(=O)O (stereo not drawn) [TKR459] here?
Answer: sparingly soluble

Question: And the Solubility in hexane ([1]; hexane)?
Answer: sparingly soluble

Question: What about the Solubility in methanol ([1]; methanol) of the same molecule?
Answer: soluble

Question: And the Solubility in water ([1]; water)?
Answer: soluble

Question: What about the Toxic signs [2] of the same molecule?
Answer: no toxic signs

Question: And the MIC ([3]; Candida albicans TIMM0136, YNBG medium, substantially complete inhibition of growth, read-out: Minimal inhibitory concentration)?
Answer: 0.78 µg/mL (≈ 1.74 µM)

Question: And the Antifungal activity ([3]; Candida albicans, summary of Table 2)?
Answer: active

Question: What about the Antifungal activity ([4]; Candida kefyr, summary of Table 2) of the same molecule?
Answer: active

Question: And the MIC ([4]; minimal concentration causing partial inhibition of growth, read-out: Sub-minimal inhibitory concentration (in parentheses))?
Answer: 0.39 µg/mL (≈ 0.871 µM)

Question: What about the MIC ([4]; substantially complete inhibition of growth, read-out: Minimal inhibitory concentration) of the same molecule?
Answer: 0.78 µg/mL (≈ 1.74 µM)

Question: What about the MIC ([5]; Cryptococcus neoformans TIMM0354, YNBG medium, substantially complete inhibition of growth, read-out: Minimal inhibitory concentration) of the same molecule?
Answer: 3.13 µg/mL (≈ 6.99 µM)

Question: And the Antifungal activity ([5]; Cryptococcus neoformans, summary of Table 2)?
Answer: active

Reference: patent US6337410B2, “Antibiotic TKR459, production method, and microorganism” (Takara Shuzo Co., Ltd., priority 1996, dated 2002)
